Legend:
[1] = tested on: human lung cancer cell line A549; test: Tumor cell growth inhibition, SRB staining, A549; type: cell-based; conditions: A549, 72 h
Procedure: The growth inhibition assay of tumor cells was detected by sulforhodamine B (SRB) staining method. The specific steps were as follows: inoculating human colon cancer cell line HCT116 and human lung cancer cell line A549 (purchased from American Type Culture Collection, ATCC) at the logarithmic growth phase into a 96-well micro culture plate at an appropriate concentration of 4000 cells/well, 100 μL for each well; after culturing overnight, adding with the compound at different concentrations (100, 10, 1, 0.1, 0.01 μM) to react for 72 h, wherein triplicate wells were set up for each concentration, and solvent control wells with the corresponding concentration and zero wells without cells were also set up. After the completion of the reaction, the culture medium was removed from the adherent cells, the later was added with 10% (w/v) trichloroacetic acid (100 μL/well) at 4° C. to fix for 1 h, and then washed five times with distilled water. After drying at room temperature, 100 μL of SRB solution (4 mg/mL, dissolved in 1% glacial acetic acid) was added into each well, followed by incubation and staining for 15 min at room temperature. The uncombined SRB was removed by washing five times with 1% glacial acetic acid. After drying at room temperature, 100 μL of 10 mM Tris solution was added into each well, and the optical density (OD) at 515 nm was measured by a […] microplate reader. The inhibition rate of the drug to tumor cell growth was calculated according to the following equation: Inhibition rate (%)=(OD of control well-OD of drug well)/OD of control well×100%. The experiment was repeated twice.

HSP90α = HSP90α (Homo sapiens (Human), UniProt P07900); test: Fluorescence polarization (FP) HSP90-alpha target binding assay; conditions: fluorescence polarization; read-out: Target binding ability HSP90α FP IC50
Excerpt: In the present invention, the method of fluorescence polarization (FP) was used to establish the screening platform for HSP90-alpha inhibitors. The principle based on is to calculate fluorescence polarization values in horizontal and vertical directions by detecting molecular weight changes before and after interaction of fluorescent labeled small molecules with other molecules, in use for correlation analysis. If binding equilibria between the fluorescent labeled small molecule and the macromolecule is established, it moves slowly when excited, and the fluorescence polarization values measured will increase. If the fluorescent labeled small molecule binding to the macromolecule is replaced with other ligands, its rotational or inversional speed in free state will become faster, the emitted light would be depolarized with respect to the exciting light plane, and thus the polarized light value measured will decrease, so as to calculate the polarization value of the sample (the unit of polarization value is mP).
The fluorescent labeled small molecule used in the present invention was VER-00051001 (synthesized by reference to the synthetic method described in JMC, 2008, 51, 196-218). The reaction was carried out in a 384-well black plate, using the reaction hydrophobic protein HFB buffer: 100 mM Tris.Cl pH 7.4, 20 mM KCl, 6 mM MgCl2, 5 μg/mL BSA, 25 nM full-length Hsp90U, 10 nM VER-51001. The volume of the reaction system was […], containing 5 nM GM-BODIPY (geldanamycin), 30 nM HSP90 and the test small molecular compound or DMSO (dimethyl sulfoxide), wherein the DMSO content was 2% o. Additional two group wells were established, wherein the wells only added with HFB buffer were used as blank controls, and the wells further added with 5 nM GM-BODIPY were used as negative controls. The reaction was carried out at 4° C. for 12-16 hours. The mP value was measured by Biotek microplate reader at 485 nm of excitation wavelength and 535 nm of emission wavelength. The inhibition rate was calculated using the following equation: (Compound-free mP−Compound mP)/(Compound-free mP−negative control mP)×100%

SMILES | EC50 [1] | IC50 (HSP90α)
CCNC(=O)c1noc(-c2cc(C(C)C)c(O)cc2O)c1-c1ccc2c(c1)CCN(C(C)C)C2 [Example 51, 5-(2,4-dihydroxyl-5-isopropylphenyl)-N-ethyl-4-(2-isopropyl-1,2,3,4-tetrahydroisoquinolin-6-yl)isoxazole-3-carboxamide] | 20 to 100 nM | 20 to 100 nM
CCNC(=O)c1noc(-c2cc(C(C)C)c(O)cc2O)c1-c1ccc2c(c1)CCN(CC(C)C)C2 [Example 52, 5-(2,4-dihydroxyl-5-isopropylphenyl)-N-ethyl-4-(2-isobutyl-1,2,3,4-tetrahydroisoquinolin-6-yl)isoxazole-3-carboxamide] | 20 to 100 nM | 20 to 100 nM
CCNC(=O)c1noc(-c2cc(C(C)C)c(O)cc2O)c1-c1ccc2c(c1)CCN(CCNC(C)=O)C2 [Example 53, 4-(2-(2-acetylaminoethyl)-1,2,3,4-tetrahydroisoquinolin-6-yl)-5-(2,4-dihydroxyl-5-isopropylphenyl)-N-ethylisoxazole-3-carboxamide] | > 100 nM | 20 to 100 nM
CCNC(=O)c1noc(-c2cc(C(C)C)c(O)cc2O)c1-c1ccc2c(c1)CCN(CCCNC(C)=O)C2 [Example 54] | > 100 nM | 20 to 100 nM
CCNC(=O)c1noc(-c2cc(C(C)C)c(O)cc2O)c1-c1ccc2c(c1)CCN(CC(=O)N(C)C)C2 [Example 55, 5-(2,4-dihydroxyl-5-isopropylphenyl)-4-(2-(2-(dimethylamino)-2-oxoethyl)-1,2,3,4-tetrahydroisoquinolin-6-yl)-N-ethylisoxazole-3-carboxamide] | > 100 nM | 20 to 100 nM
CCNC(=O)c1noc(-c2cc(C(C)C)c(O)cc2O)c1-c1ccc2c(c1)CCN(CCC(=O)N(C)C)C2 [Example 56] | > 100 nM | 20 to 100 nM
CCNC(=O)c1noc(-c2cc(C(C)C)c(O)cc2O)c1-c1ccc2c(c1)CCN(C(=O)CCN(C)C)C2 [Example 57, 5-(2,4-dihydroxyl-5-isopropylphenyl)-4-(2-(3-(dimethylamino)propionyl)-1,2,3,4-tetrahydroisoquinolin-6-yl)-N-ethylisoxazole-3-carboxamide] | > 100 nM | 20 to 100 nM
CCNC(=O)c1noc(-c2cc(C(C)C)c(O)cc2O)c1-c1ccc2c(c1)CCN(C(=O)CCN1CCOCC1)C2 [Example 58, 5-(2,4-dihydroxyl-5-isopropylphenyl)-N-ethyl-4-(2-(3-morpholino-4-yl-propionyl)-1,2,3,4-tetrahydroisoquinolin-6-yl)isoxazole-3-carboxamide] | > 100 nM | 20 to 100 nM
CCNC(=O)c1noc(-c2cc(C(C)C)c(O)cc2O)c1-c1ccc2c(c1)CCN(C(=O)CN(C)C)C2 [Example 59, 5-(2,4-dihydroxyl-5-isopropylphenyl)-4-(2-(2-(dimethylamino)acetyl)-1,2,3,4-tetrahydroisoquinolin-6-yl)-N-ethylisoxazole-3-carboxamide] | > 100 nM | 20 to 100 nM
CCNC(=O)c1noc(-c2cc(C(C)C)c(O)cc2O)c1-c1ccc2c(c1)CCN(C(=O)CN1CCOCC1)C2 [Example 60, 5-(2,4-dihydroxyl-5-isopropylphenyl)-N-ethyl-4-(2-(2-morpholino-4-yl-acetyl)-1,2,3,4-tetrahydroisoquinolin-6-yl)isoxazole-3-carboxamide] | > 100 nM | 20 to 100 nM
CC(C)c1cc(-c2noc(C(N)=O)c2-c2ccc3c(c2)CCN(C)C3)c(O)cc1O [Example 61, 3-(2,4-dihydroxyl-5-isopropylphenyl)-4-(2-methyl-1,2,3,4-tetrahydroisoquinolin-6-yl)isoxazol-5-carboxamide] | < 20 nM | < 20 nM
CNC(=O)c1onc(-c2cc(C(C)C)c(O)cc2O)c1-c1ccc2c(c1)CCN(C)C2 [Example 62, 3-(2,4-dihydroxyl-5-isopropylphenyl)-N-methyl-4-(2-methyl-1,2,3,4-tetrahydroisoquinolin-6-yl)isoxazole-5-carboxamide] | < 20 nM | < 20 nM
CC(C)NC(=O)c1onc(-c2cc(C(C)C)c(O)cc2O)c1-c1ccc2c(c1)CCN(C)C2 [Example 63, 3-(2,4-dihydroxyl-5-isopropylphenyl)-N-isopropyl-4-(2-methyl-1,2,3,4-tetrahydroisoquinolin-6-yl)isoxazole-5-carboxamide] | < 20 nM | < 20 nM
CC(C)c1cc(-c2noc(C(=O)NCCO)c2-c2ccc3c(c2)CCN(C)C3)c(O)cc1O [Example 64, 3-(2,4-dihydroxyl-5-isopropylphenyl)-N-(2-hydroxylethyl)-4-(2-methyl-1,2,3,4-tetrahydroisoquinolin-6-yl)isoxazole-5-carboxamide] | < 20 nM | < 20 nM
CC(C)c1cc(-c2noc(C(=O)NCCF)c2-c2ccc3c(c2)CCN(C)C3)c(O)cc1O [Example 65, 3-(2,4-dihydroxyl-5-isopropylphenyl)-N-(2-fluoroethyl)-4-(2-methyl-1,2,3,4-tetrahydroisoquinolin-6-yl)isoxazole-5-carboxamide] | < 20 nM | < 20 nM
CC(C)c1cc(-c2noc(C(=O)NCCCO)c2-c2ccc3c(c2)CCN(C)C3)c(O)cc1O [Example 66, 3-(2,4-dihydroxyl-5-isopropylphenyl)-N-(3-hydroxylpropyl)-4-(2-methyl-1,2,3,4-tetrahydroisoquinolin-6-yl)isoxazole-5-carboxamide] | < 20 nM | < 20 nM
CCNC(=O)c1onc(-c2cc(C(C)C)c(O)cc2O)c1-c1ccc2c(c1)CCN(C(C)C)C2 [Example 68, 3-(2,4-dihydroxyl-5-isopropylphenyl)-N-ethyl-4-(2-isopropyl-1,2,3,4-tetrahydroisoquinolin-6-yl)isoxazole-5-carboxamide] | < 20 nM | < 20 nM
CCNC(=O)c1onc(-c2cc(C(C)C)c(O)cc2O)c1-c1ccc2c(c1)CCN(CCO)C2 [Example 69] | < 20 nM | < 20 nM
CCNC(=O)c1onc(-c2cc(C(C)C)c(O)cc2O)c1-c1ccc2c(c1)CCN(CCOC)C2 [Example 70] | 20 to 100 nM | < 20 nM
CCNC(=O)c1onc(-c2cc(C(C)C)c(O)cc2O)c1-c1ccc2c(c1)CCN(CCF)C2 [Example 71] | < 20 nM | < 20 nM

From patent publication US10035792B2, “Resorcinol derivative as HSP90 inhibitor” (priority 2015, dated 2018)
